Reference: US11459315B2, “Modulators of methyl modifying enzymes, compositions and uses thereof” (Constellation Pharmaceuticals, Inc., priority 2017, dated 2022)
Read-outs that look alike come from different tables or passages of the source.

Key:
[1] = system: H3K27me3 mark in HeLa cells (EZH2); assay: H3K27me3 Alpha Hela Assay (AlphaLISA); format: cell-based
Protocol: H3K27me3 Alpha Hela Assay (AlphaLISA). Ten different doses of each test compound (in a series of 3-fold dilutions) were plated in duplicate 384-well tissue culture treated plates (Catalog #6007680; Perkin Elmer, Waltham, Mass.). Hela cells grown in culture were trypsinized and counted using a Countess® cell counter (Catalog #C10281; Life Technologies, Grand Island, N.Y.). Cell were diluted to 67,000 cells per mL in 10% DMEM (Catalog #10569-010 Life Technologies, Grand Island, N.Y.) and 15 μL (1,000 cells) were plated into each well using the Biotek MicroFlo™ Select Dispenser (BioTek Instruments, Inc. Vermont, USA),) of the 384-well plate. Plates were incubated at 37° C./5% CO2 for 72 hrs. One of the duplicate plates was processed for HeLa assay and the other for viability.
5 μL of Cell-Histone Lysis buffer (1×) (Catalog #AL009F1 Perkin Elmer; Waltham, Mass.) per well was added to the plate processed for AlphaLISA and the plate was incubated at RT for 30 minutes on a plate shaker with low speed (Model #4625-Q Thermo Scientific; Waltham, Mass.). Then, 10 μL per well Histone Extraction buffer (catalog #AL009F2; Perkin Elmer; Waltham, Mass.) was added and the plate further incubated at RT for 20 min on plate shaker with low speed. Next, 10 μL of 5× mix of anti-K27me3 acceptor beads plus Biotinylated anti-Histone H3 (C-ter) Antibody (diluted to 3 nM final) (Catalog #AL118 Perkin Elmer; Waltham, Mass.) was added in each well. Dilution of the acceptor beads and anti-Histone H3 was done in 1× Histone Detection buffer (Catalog #AL009F3 Perkin Elmer; Waltham, Mass.) which was produced by diluting the 10× stock provided. The plate was sealed with an aluminum plate sealer and incubated at 23° C. for 60 min. Next, 10 μL 5× solution of Streptavidin Donor beads were added (Catalog #6760002 Perkin Elmer; Waltham, Mass.) (20 μg/mL final in 1× Histone Detection Buffer), =plate was sealed with Aluminum plate sealer and incubated at 23° C. for 30 min. The plates were then read using an EnVision-Alpha Reader (model #2104 Perkin Elmer; Waltham, Mass.).
Data from both assays was analyzed using Genedata (Basel, Switzerland). Data files were imported to Genedata and assay conditions were specified. A unique Analysis ID was created and the data files analysed to measure dose-dependent inhibition of H3K27me3 mark and cell viability respectively. Readout of DMSO wells were used to normalize the data. Resulting curves were fitted using Smart fit application (Genedata; Basel, Switzerland). The data was checked for quality, validated and integrated in excel format using Stardrop (Optibruim, Cambridge, UK).
EC50 values are reported as follows: “A” indicates an EC50 value of less than 10 nM; “B” indicates an EC50 value of 10 nM to 100 nM; “C” indicates an EC50 value of greater than 100 nM; and “ND” is not determined.

PRC2 containing wt EZH2 = PRC2 containing wt EZH2 (Homo sapiens (Human), UniProt Q15910); assay: EZH2 biochemical assay (IC50), 3H-SAM incorporation into biotinylated H3 peptide
Protocol: EZH2 biochemical assay (IC50): Compound potencies were assessed through incorporation of ^3H-SAM into a biotinylated H3 peptide. Specifically, 30 pM PRC2 containing wt EZH2 (pentameric complex prepared in-house) was pre-incubated with 450 nM SAM, 450 nM ^3H-SAM, 2 μM H3K27me3 activating peptide (H2N-[…](Kme3)[…]-amide) and compounds (as 10 point duplicate dose response titrations in DMSO, final assay 0.8% DMSO (v/v)) for 3-5 h in 50 mM Tris (pH 8.5), 1 mM DTT, 0.07 mM Brij-35, 0.1% BSA, and 0.8% DMSO in a total volume of 12.5 μl. Reaction was initiated with biotinylated H3 substrate peptide (H2N-[…](Kme1)[…]-NTPEGBiot) as a 2 μM stock in 12.5 μl of buffer and allowed to react at room temperature for 18-22 h. Quenching was accomplished by addition of 20 μl of STOP solution (50 mM Tris (pH 8.5), 200 mM EDTA, 2 mM SAH). 35 μl of the quenched solution was transferred to streptavidin coated FlashPlates (PerkinElmer), incubated 1-2 h, washed, and read in a TopCount Reader (PerkinElmer). IC50s were calculated in Genedata Screener using non-linear least square four parameter fits, where the four parameters were IC50, Hill slope, pre-transitional baseline (0% INH), and post-transitional baseline (100% INH).
IC50 values are reported as follows: “A” indicates an IC50 value of less than 0.5 nM; “B” indicates an IC50 value of 0.5 nM to 5 nM; “C” indicates an IC50 value of greater than 5 nM for each enzyme; and “ND” is not determined.

[2] = Homo sapiens, HeLa, HeLa cell assay, Table 3 classes, read-out: EC50 Cellular Activity
[3] = 30 pM PRC2 containing wt EZH2; 3-5 h pre-incubation; read-out: EZH2 (IC50)
[4] = Homo sapiens, HeLa, 72 h, HeLa cells, 72 hrs, read-out: EZH2 Cell H3K27me3 Alpha HeLa (EC50 K27me3)
[5] = HeLa cells, 72 hrs, read-out: EZH2 Cell H3K27me3 Alpha HeLa (EC50 K27me3)
[6] = EZH2 (IC50), 30 pM PRC2 containing wt EZH2; 3-5 h pre-incubation
[7] = read-out: EZH2 (IC50); 30 pM PRC2 containing wt EZH2; 3-5 h pre-incubation
[8] = HeLa cell assay, Table 3 classes, read-out: EC50 Cellular Activity

Chain of PRC2 containing wt EZH2 (Q15910 whole entry): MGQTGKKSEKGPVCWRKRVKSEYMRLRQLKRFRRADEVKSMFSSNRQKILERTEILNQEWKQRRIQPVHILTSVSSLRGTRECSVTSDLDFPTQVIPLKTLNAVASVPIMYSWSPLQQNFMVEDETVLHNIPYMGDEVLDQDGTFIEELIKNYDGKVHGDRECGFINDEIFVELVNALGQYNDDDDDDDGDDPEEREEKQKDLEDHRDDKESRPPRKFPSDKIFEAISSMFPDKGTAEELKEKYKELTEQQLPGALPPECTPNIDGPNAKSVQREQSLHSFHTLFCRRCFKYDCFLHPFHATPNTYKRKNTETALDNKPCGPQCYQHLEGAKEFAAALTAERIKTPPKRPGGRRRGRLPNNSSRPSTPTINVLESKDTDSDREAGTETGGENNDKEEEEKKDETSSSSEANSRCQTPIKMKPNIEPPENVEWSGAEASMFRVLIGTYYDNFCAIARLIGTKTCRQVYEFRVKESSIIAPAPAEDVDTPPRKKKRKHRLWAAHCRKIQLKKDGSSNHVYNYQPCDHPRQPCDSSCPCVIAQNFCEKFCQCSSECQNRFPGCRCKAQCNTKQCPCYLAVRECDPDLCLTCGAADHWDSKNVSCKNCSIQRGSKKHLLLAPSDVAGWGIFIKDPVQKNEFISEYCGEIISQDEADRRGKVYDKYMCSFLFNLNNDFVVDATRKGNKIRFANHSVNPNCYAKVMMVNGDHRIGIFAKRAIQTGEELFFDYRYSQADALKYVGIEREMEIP
Chain of PRC2 containing wt EZH2 (O75530 whole entry partner): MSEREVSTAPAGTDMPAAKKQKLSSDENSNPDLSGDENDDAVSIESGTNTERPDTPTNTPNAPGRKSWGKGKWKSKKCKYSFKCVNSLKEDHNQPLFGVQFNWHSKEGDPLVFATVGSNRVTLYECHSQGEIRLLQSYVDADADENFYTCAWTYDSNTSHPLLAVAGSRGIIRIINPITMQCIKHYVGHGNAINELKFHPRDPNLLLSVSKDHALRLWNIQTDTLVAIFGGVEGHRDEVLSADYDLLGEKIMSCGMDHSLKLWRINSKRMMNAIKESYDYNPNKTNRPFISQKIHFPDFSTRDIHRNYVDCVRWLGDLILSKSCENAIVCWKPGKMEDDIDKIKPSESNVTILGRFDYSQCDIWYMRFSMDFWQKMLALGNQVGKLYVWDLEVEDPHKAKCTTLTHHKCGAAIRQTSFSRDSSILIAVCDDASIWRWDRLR
Chain of PRC2 containing wt EZH2 (Q15022 whole entry partner): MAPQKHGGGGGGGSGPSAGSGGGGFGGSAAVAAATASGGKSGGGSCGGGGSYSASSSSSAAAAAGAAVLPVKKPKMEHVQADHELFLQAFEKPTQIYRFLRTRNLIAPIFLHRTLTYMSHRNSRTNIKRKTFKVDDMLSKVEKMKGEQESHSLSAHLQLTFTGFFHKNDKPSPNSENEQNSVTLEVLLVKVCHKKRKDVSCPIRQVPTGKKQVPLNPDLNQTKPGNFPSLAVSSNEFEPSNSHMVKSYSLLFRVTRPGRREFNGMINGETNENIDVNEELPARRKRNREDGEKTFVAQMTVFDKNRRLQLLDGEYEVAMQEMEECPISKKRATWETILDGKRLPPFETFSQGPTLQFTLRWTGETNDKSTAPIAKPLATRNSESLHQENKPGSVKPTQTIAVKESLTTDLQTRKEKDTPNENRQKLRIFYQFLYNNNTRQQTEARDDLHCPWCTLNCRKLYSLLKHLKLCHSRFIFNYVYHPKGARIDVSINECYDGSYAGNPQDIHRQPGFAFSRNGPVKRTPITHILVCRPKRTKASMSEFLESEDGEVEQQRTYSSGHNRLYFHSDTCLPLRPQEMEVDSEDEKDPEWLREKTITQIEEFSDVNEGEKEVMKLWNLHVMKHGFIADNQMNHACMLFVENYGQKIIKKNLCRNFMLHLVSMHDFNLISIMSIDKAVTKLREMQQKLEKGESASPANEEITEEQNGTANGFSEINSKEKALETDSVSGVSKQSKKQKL
Chain of PRC2 containing wt EZH2 (Q09028 whole entry partner): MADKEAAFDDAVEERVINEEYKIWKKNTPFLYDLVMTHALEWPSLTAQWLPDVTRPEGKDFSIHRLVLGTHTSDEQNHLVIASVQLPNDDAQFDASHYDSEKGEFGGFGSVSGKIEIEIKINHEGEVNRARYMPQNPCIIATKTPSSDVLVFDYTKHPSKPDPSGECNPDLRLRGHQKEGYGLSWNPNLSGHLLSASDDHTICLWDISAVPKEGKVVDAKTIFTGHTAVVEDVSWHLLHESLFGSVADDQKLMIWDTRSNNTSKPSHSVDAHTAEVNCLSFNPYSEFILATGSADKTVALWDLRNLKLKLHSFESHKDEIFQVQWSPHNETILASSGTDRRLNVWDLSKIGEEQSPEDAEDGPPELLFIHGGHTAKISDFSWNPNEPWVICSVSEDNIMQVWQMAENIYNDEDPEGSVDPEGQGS
Chain of PRC2 containing wt EZH2 (Q6ZN18 whole entry partner): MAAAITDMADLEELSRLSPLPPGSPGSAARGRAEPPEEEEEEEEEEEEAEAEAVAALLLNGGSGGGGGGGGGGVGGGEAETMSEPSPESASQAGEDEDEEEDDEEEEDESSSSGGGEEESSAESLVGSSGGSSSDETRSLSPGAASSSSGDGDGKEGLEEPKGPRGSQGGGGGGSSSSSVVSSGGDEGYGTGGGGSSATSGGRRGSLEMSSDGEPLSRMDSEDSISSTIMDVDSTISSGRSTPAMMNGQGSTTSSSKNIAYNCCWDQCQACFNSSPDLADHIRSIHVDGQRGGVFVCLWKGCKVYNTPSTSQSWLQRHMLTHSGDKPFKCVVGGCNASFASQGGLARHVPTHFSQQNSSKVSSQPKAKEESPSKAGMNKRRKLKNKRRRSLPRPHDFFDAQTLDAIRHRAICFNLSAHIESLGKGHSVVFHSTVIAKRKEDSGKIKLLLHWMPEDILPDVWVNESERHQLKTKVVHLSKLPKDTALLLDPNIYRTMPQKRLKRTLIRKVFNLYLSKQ

SMILES | IC50 (PRC2 containing wt EZH2; [3]) [nM] | EC50 [1, 5] [nM] | other results
Cc1cc(C)c(CNC(=O)c2c(C)n([C@H](C)C3CCOCC3)c3ccccc23)c(=O)[nH]1 | – | – | EC50 [1, 2]: 25 to 125 nM
COc1cc(C)[nH]c(=O)c1CNC(=O)c1c(C)n([C@H](C)C2CCOCC2)c2ccccc12 | – | – | EC50 [1, 2]: 25 to 125 nM
CSc1cc(C)[nH]c(=O)c1CNC(=O)c1c(C)n([C@H](C)[C@H]2CC[C@H](NC3(C)COC3)CC2)c2ccccc12 (single isomer, unassigned) [1 (isomer 1)] | < 0.5 | – | EC50 [1, 4]: < 10 nM
CSc1cc(C)[nH]c(=O)c1CNC(=O)c1c(C)n([C@H](C)[C@H]2CC[C@H](NC3(C)COC3)CC2)c2ccccc12 (single isomer, unassigned) [1 (isomer 2)] | < 0.5 | 10 to 100 | –
CSc1cc(C)[nH]c(=O)c1CNC(=O)c1c(C)n([C@H](C)C2CCC(NC3COC3)CC2)c2ccccc12 (single isomer, unassigned) [2 (isomer 1)] | < 0.5 | – | EC50 [1, 4]: < 10 nM
CSc1cc(C)[nH]c(=O)c1CNC(=O)c1c(C)n([C@H](C)C2CCC(NC3COC3)CC2)c2ccccc12 (single isomer, unassigned) [2 (isomer 2)] | < 0.5 | 10 to 100 | –
CSc1cc(C)[nH]c(=O)c1CNC(=O)c1c(C)n([C@H](C)C2CCC(N(C)C3(C)COC3)CC2)c2ccccc12 (single isomer, unassigned) [3 (isomer 1)] | < 0.5 | – | EC50 [1, 4]: < 10 nM
CSc1cc(C)[nH]c(=O)c1CNC(=O)c1c(C)n([C@H](C)C2CCC(N(C)C3(C)COC3)CC2)c2ccccc12 (single isomer, unassigned) [3 (isomer 2)] | < 0.5 | 10 to 100 | –
COC1CN(C2CCC([C@@H](C)n3c(C)c(C(=O)NCc4c(SC)cc(C)[nH]c4=O)c4ccccc43)CC2)C1 (single isomer, unassigned) [4 (isomer 1)] | – | – | IC50 (PRC2 containing wt EZH2; [6]): < 0.5 nM; EC50 [1, 4]: < 10 nM
COC1CN(C2CCC([C@@H](C)n3c(C)c(C(=O)NCc4c(SC)cc(C)[nH]c4=O)c4ccccc43)CC2)C1 (single isomer, unassigned) [4 (isomer 2)] | – | 10 to 100 | IC50 (PRC2 containing wt EZH2; [7]): < 0.5 nM
CSc1cc(C)[nH]c(=O)c1CNC(=O)c1c(C)n([C@H](C)C2OCC(NC(C)(C)C)CO2)c2ccccc12 (single isomer, unassigned) [5 (isomer 1)] | 0.5 to 5 | – | EC50 [1, 4]: 10 to 100 nM
CSc1cc(C)[nH]c(=O)c1CNC(=O)c1c(C)n([C@H](C)C2OCC(NC(C)(C)C)CO2)c2ccccc12 (single isomer, unassigned) [5 (isomer 2)] | < 0.5 | < 10 | –
CSc1cc(C)[nH]c(=O)c1CNC(=O)c1c(C)n([C@H](C)C2OCC(NC3(C)COC3)CO2)c2ccccc12 (single isomer, unassigned) [6 (isomer 1)] | < 0.5 | < 10 | –
CSc1cc(C)[nH]c(=O)c1CNC(=O)c1c(C)n([C@H](C)C2OCC(NC3(C)COC3)CO2)c2ccccc12 (single isomer, unassigned) [6 (isomer 2)] | 0.5 to 5 | > 100 | –
CSc1cc(C)[nH]c(=O)c1CNC(=O)c1c(C)n([C@H](C)C2OCC(N(C)C)CO2)c2ccccc12 (single isomer, unassigned) [7 (isomer 1)] | 0.5 to 5 | > 100 | –
CSc1cc(C)[nH]c(=O)c1CNC(=O)c1c(C)n([C@H](C)C2OCC(N(C)C)CO2)c2ccccc12 (single isomer, unassigned) [7 (isomer 2)] | < 0.5 | < 10 | –
CSc1cc(C)[nH]c(=O)c1CNC(=O)c1c(C)n([C@H](C)C2COC2)c2ccccc12 (single isomer, unassigned) [14 (isomer 1)] | – | – | IC50 (PRC2 containing wt EZH2; [6]): < 0.5 nM; EC50 [1, 4]: 10 to 100 nM
CSc1cc(C)[nH]c(=O)c1CNC(=O)c1c(C)n([C@@H](C)C2COC2)c2ccccc12 (single isomer, unassigned) [14 (isomer 2)] | – | – | IC50 (PRC2 containing wt EZH2; [6]): > 5 nM; EC50 [1, 4]: > 100 nM
CSc1cc(C)[nH]c(=O)c1CNC(=O)c1c(C)n([C@H](C)C2OCC(N3CCC3(C)C)CO2)c2ccccc12 (single isomer, unassigned) [15 (isomer 1)] | – | < 10 | IC50 (PRC2 containing wt EZH2; [6]): < 0.5 nM
CSc1cc(C)[nH]c(=O)c1CNC(=O)c1c(C)n([C@H](C)C2OCC(N3CCC3(C)C)CO2)c2ccccc12 (single isomer, unassigned) [15 (isomer 2)] | – | > 100 | IC50 (PRC2 containing wt EZH2; [7]): < 0.5 nM
COCCN(C)C1COC([C@@H](C)n2c(C)c(C(=O)NCc3c(SC)cc(C)[nH]c3=O)c3ccccc32)OC1 (single isomer, unassigned) [16 (isomer 1)] | < 0.5 | < 10 | –
COc1cnc2c(c1)c(C(=O)NCc1c(SC)cc(C)[nH]c1=O)c(C)n2[C@H](C)C1CCC(N2CC(OC(F)F)C2)CC1 (single isomer, unassigned) [125 (isomer 2)] | < 0.5 | – | –
Cc1cc(Cl)c(CNC(=O)c2c(C)n([C@H](C)C3OCC(NC(C)(C)C)CO3)c3ccccc23)c(=O)[nH]1 (single isomer, unassigned) [drawing 222] | – | – | EC50 [1, 8]: 5 to 25 nM
COC1CCC([C@@H](C)n2c(C)c(C(=O)NCc3c(SC)cc(C)[nH]c3=O)c3ccccc32)CC1 (single isomer, unassigned) [drawing 249] | – | – | EC50 [1, 2]: < 5 nM
CSc1cc(C)[nH]c(=O)c1CNC(=O)c1c(C)n([C@H](C)C2CCC(N3CC(OC(F)F)C3)CC2)c2ccccc12 (single isomer, unassigned) [drawing 253] | – | – | EC50 [1, 8]: 5 to 25 nM
COC1CN(C2CCC([C@@H](C)n3c(C)c(C(=O)NCc4c(SC)cc(C)[nH]c4=O)c4cccnc43)CC2)C1 (single isomer, unassigned) [drawing 260] | – | – | EC50 [1, 8]: > 125 nM
CCOC1CN(C2CCC([C@@H](C)n3c(C)c(C(=O)NCc4c(SC)cc(C)[nH]c4=O)c4cccnc43)CC2)C1 (single isomer, unassigned) [drawing 262] | – | – | EC50 [1, 8]: 25 to 125 nM
CSc1cc(C)[nH]c(=O)c1CNC(=O)c1c(C)n([C@H](C)C2CCC(NC3(C)CCOC3)CC2)c2ccccc12 (single isomer, unassigned) [drawing 270] | – | – | EC50 [1, 8]: 25 to 125 nM
